# Measurements taken from a melting point compilation (Tetko et al.; mined from patent text by program, amines drawn as free bases though some values may be those of a salt).
row,SMILES,melting point [°C]
1,COC(=O)C1=C(C)N(Cc2ccccc2[N+](=O)[O-])C(C)=C(C(=O)OC)C1c1cccc2nonc12,192
2,Cc1ccc(C(=S)c2cc(C(C)(C)C)c(O)c(C(C)(C)C)c2)cc1,135 to 136
3,Clc1cc2nc(NCCCN3CCOCC3)c(-c3ccccn3)nc2cc1Cl,119 to 121
4,O=C(Nc1ccccc1-c1nc2cccnc2o1)c1ccccc1,197 to 198
5,CC(O)C(NC(=O)OC(C)(C)C)C(=O)OCC(=O)c1ccccc1 (stereo unspecified),114
6,CC(=O)CC(=O)c1cccc2[nH]ccc12,104 to 105
7,CNC1=NS(=O)N=C1NCCCNc1ncc(Br)cc1C (stereo unspecified),211 to 212
8,O=c1[nH]ncc2[nH]c(-c3ccc(OC(F)F)c(OC4CCC4)c3)cc12,289 to 291
9,O=C(O)CC1(c2cccc(F)c2)NC(=O)NC1=O (stereo unspecified),206 to 208
10,CC(C)Cn1c(CO)nc2c(N)nc3c(c21)CCCC3,226
11,CCCCOc1ccc2nc(C(C)=O)c(O)cc2c1,71 to 73
12,Cc1[nH]c(=O)sc1C#N,180 to 181
13,COc1cc(C)nc(CNC(=O)NS(=O)(=O)c2ccccc2S(=O)(=O)N(C)C)n1,153 to 156
14,C=C(c1ccc(Cl)cc1)c1ccc(NC(=O)c2cc(I)cc(I)c2O)cc1Cl,171 to 175
15,COC(C)(CC(=O)Nc1cccc(OCc2ccccc2)c1)OC,83
16,CN(C)CCc1cccc(OCCCN2C(=O)c3ccccc3C2=O)c1,59 to 60
17,N#CC1OC(=O)c2cccc(F)c21 (stereo unspecified),93 to 96
18,COC(=O)c1nc2cccc(Cl)c2c(O)c1C(=O)OC,174 to 176
19,CCN1c2ncc(C=Cc3cccc(C)c3)cc2C(=O)N(C)c2cccnc21,207 to 208
20,O=c1c2ccc(O)c(O)c2oc2cccc(O)c12,300 to 301
21,O=C(O)Cc1cc(C(=O)c2ccccc2)cc(Cl)c1O,131
22,CC1(C)OC(=S)Nc2ccc(-c3coc(C#N)c3)cc21,214 to 216
23,N#Cc1ccc(-c2ccccc2)c(NC(=O)Nc2cccnc2)c1,180 to 182

row,SMILES,melting point [°C]
1,Cc1cc(CCC(=O)OC(C)(C)C)cc(-c2nc(=O)c3ccccc3s2)n1,129 to 130
2,CCCc1c(OC(C)=O)cc2oc3cc(Cl)cn3c(=O)c2c1OC(C)=O,178 to 179
3,C=CCc1ccc(C(NC(=O)OC(C)(C)C)C(=O)OC)cc1 (stereo unspecified),60.6 to 62
4,CCOC(=O)c1cc2c([nH]c3ccccc32)c(CNc2ccccc2)n1,256 to 258
5,C1=C(c2ccccc2)CCN(C2CC=C(c3ccccn3)CC2)C1 (stereo unspecified),143 to 144
6,COc1ccc2c(=O)n3c(cc2c1)SCCC3,86 to 87
7,CSC(=NCc1ccc(CCO)cc1)NC#N,164 to 165
8,O=C(NC/C=C\COc1cc(CN2CCCCC2)ccn1)c1ccc[nH]1,136 to 137
9,COc1ccc(C(C)=Cc2ccncc2)c2c1OC(C)(C)C2,85 to 87
10,N#Cc1cc2c(cc1C(F)(F)F)[nH]c(=O)c(=O)n2OCC(=O)O,257
11,CCc1ncnc(O)c1I,191 to 192
12,CS(=O)(=O)Nc1cc2occ([N+](=O)[O-])c(=O)c2cc1Oc1ccccc1,225 to 227
13,Cn1c2cc(OCC(O)CO)ccc2c2c3c(c(-c4ccccc4Cl)cc21)C(=O)NC3=O (stereo unspecified),287 to 290
14,CC1OC(CN(C)C(=O)Nc2nnc(S(=O)(=O)N(C)C)s2)OC1C (stereo unspecified),133 to 134
15,Cc1nc2cnc(Nc3ccc(N4CCNCC4)cn3)nc2n(C2CCCC2)c1=O,221 to 223
16,CCCc1c(OCCCCCC(=O)NC(C)CCCc2cccnc2)ccc(C(C)=O)c1O (stereo unspecified),63 to 66
17,COC(=O)COc1cc(C(F)(F)F)cc(C(F)(F)F)c1,65 to 67
18,CN(C)c1c[nH]c2ncccc12,144 to 152
19,O=C(COc1cc(N2C(=O)C3=C(CCCC3)C2=O)c(F)cc1Cl)OCc1nc[nH]n1,151 to 154
20,Cn1nc2c(N)nc3ccccc3c2c1CC1(F)CCOCC1,252 to 254
21,CCCCc1nc([N+](=O)[O-])c(CSc2ccccc2C(=O)O)n1Cc1ccc(C(=O)O)cc1,246 to 247
22,CCCN(Cc1ccc(-c2ccccc2-c2nnn[nH]2)cc1)c1nn(C)cc1C(=O)O,101 to 105
23,Oc1nnc2ccc3ccccc3n12,134

row,SMILES,melting point [°C]
1,O=C(c1ccco1)N1CCN(c2cc(-c3ccccc3)c3c(n2)CCCC3)CC1,128 to 130
2,CCC[C@H]1CC[C@H](c2ccc(OCC)c(C#N)c2)CC1,32
3,c1cnc(-c2nc(C3CC3)no2)cn1,61 to 64
4,CCCSc1ccc(N)c([N+](=O)[O-])c1,36.5 to 38
5,COCCOc1c(F)c(Oc2ccc(S(C)(=O)=O)nc2)cc2cc(C3=NCC(CC(N)=O)S3)[nH]c12 (stereo unspecified),143 to 144
6,CC(=O)Nc1ccc2c(c1)c(-c1cc3cccnc3[nH]1)cn2C,220 to 221
7,CN(C)C(=N[N+](=O)[O-])NCc1cnc(Cl)s1,155 to 160
8,COc1ccc(-c2ccc3c(c2)C(=O)NC3=O)c2c1OCCO2,285 to 287
9,CCCN1CC(NC(=O)C(C)(C)C)CC2c3cccc4[nH]c(Br)c(c34)CC21 (stereo unspecified),182 to 183
10,CC(=NCCO)c1ccccc1NC(=O)C(Cl)(Cl)Cl,182
11,Cc1ccc(P(C)(C)=O)cc1,90 to 92
12,Cc1ccccc1C(=O)n1ccc(-c2ccc(C(=O)N3Cc4cccn4Cc4ccccc43)cc2)n1,170 to 173
13,CC(=O)OC1C=CC2(C)C(=CCC3C2CCC2(C)C(C(C)CCCC(C)C)CCC32)C1 (stereo unspecified),73 to 75
14,CC/C(=C(\c1ccc(/C=C/C(=O)O)cc1)c1ccc(OC(=O)c2ccco2)cc1)c1ccccc1,170 to 172
15,Cc1cccc(C)c1NC(=O)CN1CCNCC1CC(N)=O (stereo unspecified),172
16,O=C1OC(=O)C(c2ccc(Cl)cc2)=C1Cl,110 to 112
17,COc1cc(Nc2nccc(Nc3ccc(CC(=O)OCc4ccccc4)cc3)n2)cc(OC)c1OC,149
18,CC(=O)C(C#N)c1ccc(F)cc1 (stereo unspecified),77 to 83
19,CCc1cccc2c1S(=O)(=O)c1ccccc1O2,101 to 103
20,FC(F)(F)c1cc(Br)c2nc(C(F)(F)F)[nH]c2c1,127 to 130
21,COc1ccc(OC)c2[nH]c(-c3ccccc3)nc12,226 to 227
22,O=C(N[C@@H](CNC(=O)c1ccc(C2CC2C(=O)NC2=NCCCN2)s1)C(=O)O)OCc1ccccc1 (stereo partly specified),98
23,Cn1c(=O)nc(-c2ccccc2F)c2cc(Cl)sc21,192 to 194

# Second part, the molecule after the results:
row,melting point [°C],SMILES
1,162 to 163,CCCC12C=CC=C(N3CCC(c4noc5cc(F)ccc45)CC3)C1(O)C(=O)NC2=O (stereo unspecified)
2,140 to 142,Cc1cccc2c1nc(COc1ccc(Cl)cc1)n2CCC(C)C(=O)N1CCCC1 (racemic)
3,139 to 141,Cc1cc(SCc2ccc(OCc3ccc(F)cc3F)cc2)ccc1OCC(=O)O
4,135 to 138,COC(=O)NC1=NCC(c2ccc(OC(C)C)cc2)N1C (stereo unspecified)
5,155 to 159,COc1ccc(C(=O)Nc2ccc(COc3ccc4c(c3)CCC(CN(C)C)C4)cc2)cc1 (stereo unspecified)
6,143,C=Cc1ccc(CNc2ccc(Nc3ccccc3)cc2)cc1
7,77,O=S(=O)(NCCCCC1Cc2ccccc2C1)c1ccc(Cl)cc1
8,131,O=S(=O)(c1ccc(Br)cc1)N1CCCC1c1ccc(F)cc1 (racemic)
9,206 to 208,CCCOc1ccc(F)c2c(=O)c(-c3ccc(OC)cc3)cn(CCN3CCOCC3)c12
10,110,Cc1cc(-n2ccnc2)c2cccc(OCc3c(Cl)ccc(S(=O)(=O)N4CCC[C@H]4C(N)=O)c3Cl)c2n1
11,111 to 113,Nc1cccc(-c2ccc(CCN3CCN(CCc4ccccc4)CC3)cc2)n1
12,258 to 263,N#Cc1ccc(-c2cn(-c3ccc(C#N)cc3)cn2)cc1
13,304 to 306,COc1ccc(-c2ccc(C=C3SC(=O)NC3=O)cc2)cc1C12CC3CC(CC(C3)C1)C2
14,178 to 182,O=C1c2ccccc2C(=O)N1CC(=O)N1c2ccccc2N(Cc2ccc(NCc3ccccc3)cc2)C(=O)[C@H]2CCC[C@H]21 (relative stereo)
15,140 to 141,COc1ccc(-c2cc(F)c(F)cc2-c2ccc(S(C)(=O)=O)cc2)cc1OC
16,208 to 210,NC(=O)c1nn(S(=O)(=O)c2ccccc2)c2ccccc12

row,melting point [°C],SMILES
1,169 to 170,CCCCc1cc2ccccc2c(Oc2ccc(/C=C/C(=O)O)cc2)c1-c1ccc(F)cc1
2,73 to 75,CC(N1CCN(c2ncnn2Cc2ccc(C(C)(C)C)cc2)CC1)C(O)(Cn1cncn1)c1ccc(F)cc1F (stereo unspecified)
3,141 to 143,COc1ccc(CCNC(=O)C(=O)NCc2ccccn2)cc1OC1CCCC1
4,111 to 113,CN(C)Cc1ccc(Cn2ccc(OCc3ccc(F)cc3F)c(Br)c2=O)cc1
5,91 to 92,CC(C)C(OCCc1ccc(-c2ccc(Cl)cc2)cc1)C(=O)O (stereo unspecified)
6,61 to 62,OC1CCN(Cc2cccc(F)c2)CC1
7,70.1 to 71,N#CCN(C1CC1)S(=O)(=O)Cc1cccc(C(F)(F)F)c1
8,174 to 175,O=c1cc(-c2nnn[nH]2)oc2c(/C=C/c3ccc(OCCCCc4ccc(F)cc4)cc3)cccc12
9,92 to 101,COc1ccc(CSc2ccc(S(=O)(=O)N=CN(C)C)s2)cc1
10,115 to 120,CN1CCC(N(CCN2CCCC2)C(=O)c2ccc(Nc3nccc(Nc4ccc(C(F)(F)F)cc4)n3)cc2)CC1
11,136,COc1ccc(-c2cc(COS(C)(=O)=O)c(=O)n(CC=Cc3ccc(Cl)cc3)n2)cc1F
12,114 to 116,CC(C)CC1(CCCCN2CCc3sccc3C2)C(=O)Nc2ccccc21 (stereo unspecified)
13,178 to 180,COc1ccc(-n2nc(C(F)(F)F)cc2-c2ccc(S(C)(=O)=O)cc2)cc1F
14,148 to 149,N#Cc1c(N2CCCCC2)cc(-c2cccc3ccccc23)c2c1Cc1ccccc1-2
15,92 to 97,O=Cc1ccc(OCCc2coc(-c3ccccc3)n2)cc1
16,211 to 212,CCc1csc(Cc2ccc(NC(=O)/C=C/c3cnn(C)c3-c3ccc(F)cc3)cc2)n1
